# Measurements: patent US12486218B2, “Compounds advantageous in the treatment of central nervous system diseases and disorders” (AurimMed Pharma, Inc., priority 2008, dated 2025)
# Where “and” joins values, the source holds several entries; their conditions need not be identical. Identical values can stand only once. Like-named read-outs stand apart in the source and are kept apart here.
# Tests used:
# rats [1] = test: Pilocarpine-induced Status Epilepticus in Rats (prevention; intervention @ 30 min); conditions: for Prevention, Protection: rat, in vivo, 200 mg/kg
# Procedure: The animal testing was performed using the protocols developed in the Anticonvulsant Screening Program (ASP) at the National Institute of Neurological Disorders and Stroke (NINDS), National Institutes of Health (NIH).
# mice [2] = conditions: mouse, in vivo, ip
# Procedure: (§1) The animal testing was performed according to methods known in the relevant art.
# SMN2 promoter = SMN2 promoter β-lactamase reporter assay in NSC34 motor neuron-like cells; assay type: cell-based
# Procedure: FIG. 30 illustrates a screen for SMN2 expression of a number of compounds described herein.
# SMN2 promoter activity was measured using NSC34 motor neuron-like cells stably transfected with a β-lactamase (BLA) reporter gene under the control of a 3.4-kilobase fragment of the SMN2 promoter. D156844 was used as a positive control for this assay.
# mice [3] = test: 6 Hz (minimal clonic seizure) model, mice i.p.; assay type: in vivo; conditions: ip
# mice [4] = test: Maximal Electroshock Seizure (MES) test, mice i.p.; assay type: in vivo; conditions: for ED50: Mus musculus
# sodium channels = conditions: by way of comparison; cited from earlier work
# rats [5] = conditions: male versus female kindled rats; cited from earlier work
# rats [6] = test: Hippocampal Kindled Rats model; assay type: in vivo; conditions: Rattus norvegicus
# rats [7] = test: Preliminary Hippocampal Kindling Screening in rats (i.p.); assay type: in vivo; conditions: at 65 mg/kg
# rats [8] = test: Minimal motor impairment (MID50), rats p.o.; assay type: in vivo
# mice [9] = test: Minimal motor impairment (MID50), mice i.p.; conditions: mice, i.p.
# Procedure: as §1
# mice [10] = test: Subcutaneous Metrazol Seizure threshold (s.c. MET) test, mice i.p.; assay type: in vivo; conditions: for ED50: Mus musculus
# rats [11] = test: MES test, rats p.o.; assay type: in vivo; conditions: Rattus norvegicus, po
# rats [12] = test: s.c. MET test, rats p.o.; assay type: in vivo; conditions: Rattus norvegicus, p.o.
# C3A hepatocyte cells [13] = test: ACTIVTox Cell Proliferation Assay; assay type: cell-based; conditions: at a concentration of 100 μM
# C3A hepatocyte cells [14] = test: ACTIVTox LDH release assay; assay type: cell-based
# Procedure: Compounds A, I, H, and F were tested by Stem Cell Innovations, Inc. (Houston, TX) in their ACTIVTox® Human Liver Cell-based assays (using C3A hepatocyte cells). Specifically, the compounds were tested in the LDH release assay, which determines the release of Lactate DeHydrogenase (an indicator of cell death) at various concentrations of test compound.
# A concentration of 100 µM of test compound is a much higher level of exposure to liver cells than would ever be expected under physiological conditions. Therefore, using 100 μM as a standard test concentration (for comparative purposes), the ratio of the absorbance (which measures the level of LDH release) resulting from the presence of the test compound versus the negative control is a value known as the “average (or mean) fold control” (Average Fold Control=Average of Absorbance/Average of Negative Control).
# in vivo = conditions: mouse, ip
# Procedure: as §1
# [15] = test system: inclusion of exon 7 in SMN2 mRNAs; test: Exon 7 inclusion BLA reporter assay in NSC34 cell line; assay type: cell-based
# Excerpt: To measure changes in the inclusion of exon 7 in SMN2 mRNAs, another NSC34 cell line was used that stably transfected with a reporter construct which expresses BLA when exon 7 is included in the SMN2 minigene mRNAs. 5-(N-ethyl-N-isopropyl)-amiloride (EIPA) was used as a positive control for this assay. Data for tis assay is illustrated in FIG. 30.
compound,measurement,setting,value
COc1ccc(C(C)CC(N)=O)cc1 (racemic) [BZ],"Prevention, Protection",rats [1],100%
same,"MID50, result in words",mice [2],No
same,"Promoter (SMN2 promoter test, summary YES/NO)",SMN2 promoter,YES
same,SMN2 promoter activity,SMN2 promoter,increased SMN2 promoter activity
"Cc1ccc(C(CC(N)=O)C2CC2)cc1 (centres unmarked) [AL, 3-Cyclopropyl-3-ρ-tolyl-propionamide]","Prevention, Protection",rats [1],100%
same,"6 Hz (32 mA), fraction of animals","mice [3]; mouse, in vivo, 100 mg/kg","4/4, 2/4, and 2/4 , 1/4 @"
same,"MID50, result in words",mice [2],No
same,activity in the MES test,"mice [4]; mouse, in vivo, 100 mg/kg",activity
same,SMN2 promoter activity,SMN2 promoter,increased SMN2 promoter activity
O=C1NC(=O)C(c2ccccc2)(c2ccccc2)N1 [phenytoin],"% of control inhibited, sodium currents, typical sodium-channel-blocking drugs",sodium channels,about 50%
same,efficacy in the two genders (comparison drug),rats [5],significantly less effective in male kindled rats than it is in female kindled rats
"CC(C)(CC(N)=O)c1ccc(Cl)cc1 [Compound A, 3-(4-Chlorophenyl)-3-methylbutyramide]",responders at 120 mg/kg,"rats [1]; Rattus norvegicus, 0.5 h, read-out: Intervention @ 30 min, Protection",57%
same,responders at 65 mg/kg,"rats [1]; Rattus norvegicus, read-out: Prevention, Protection",86%
same,ED50,rats [6],26 mg/kg
same,"seizure score, Preliminary Hippocampal Kindling Screening",rats [7],zero
same,ED50,"mice [3]; Mus musculus, mice, i.p., read-out: 6 Hz ED50",47.6 mg/kg
same,MID50,rats [8],244.90 mg/kg
same,MID50 (median minimal motor impairment dose),mice [9],107.87 mg/kg
same,ED50,"mice [10]; mice i.p., @ 0.25 hr",39.3 mg/kg
same,ED50,"mice [10]; mice, i.p.",39.3 mg/kg
same,ED50,rats [11],28.8 mg/kg
same,ED50,"mice [4]; ip, mice",41.6 mg/kg
same,ED50,"mice [4]; ip, mice i.p., @ 0.25 hr",41.6 mg/kg
same,ED50,rats [12],45 mg/kg
same,SMN2 promoter activity,SMN2 promoter; treatment for 19 hours at a concentration of 1 μM,increased SMN2 promoter activity
same,"Cell Proliferation Assay, mean fold control",C3A hepatocyte cells [13],1.15
same,toxicity to proliferating cells,C3A hepatocyte cells [13],non-toxic
same,"LDH release, mean fold control","C3A hepatocyte cells [14]; at 100 μM, C3A hepatocyte cells, value below 1.75 = no cyto- or hepatotoxic activity",1.05
same,"cyto- or hepatotoxicity, ACTIVTox data","C3A hepatocyte cells [14]; at physiologically relevant concentrations (i.e., <100 µM)",not cyto- or hepatotoxic
same,TD50,in vivo,108 mg/kg
same,effect on the inclusion of exon 7 in SMN2 transcripts,[15]; NSC34 exon 7 BLA reporter cells,positive effect on the inclusion of exon 7
same,Exon 7 inclusion (summary YES/NO),[15]; Table 13 summary,YES
NC(=O)CC1(c2cccc(Cl)c2)CCCC1 [CX],"s.c. MET, fraction of animals","mice [10]; mouse, in vivo, 100 mg/kg",2/4 @ 0.25 hrs
same,"MID50, fraction of animals",mice [2]; 100 mg/kg,8/8 @ 0.25 hrs
same,"MES, fraction of animals","mice [4]; mouse, in vivo, ip, 100 mg/kg","4/4 @ and 3/4, 2/4 @"
same,"Promoter (SMN2 promoter test, summary YES/NO)",SMN2 promoter,YES
same,SMN2 promoter activity,SMN2 promoter,increased SMN2 promoter activity
Nc1nnc(-c2cccc(Cl)c2Cl)c(N)n1 [lamotrigine],"% of control inhibited, sodium currents, typical sodium-channel-blocking drugs",sodium channels,about 50%
